In the supplement of paper PMC10627819:

Legend:
S. aureus Newman = test: Bliss interaction score (quartile over a dose matrix) (fitness difference); higher = more antagonism (negative = synergy)
Summary of the method: (§1)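 Fitness was OD595 at entry into stationary phase divided by the plate's robust no-drug mean and capped at 1; single-drug fitness was inferred from combination data. The Bliss score is observed minus expected (product) fitness, summarised by quartiles over technical, biological and donor/recipient replicates.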

S. pneumoniae D39V [1] = test: as above
Summary of the method: as §1

B. subtilis 168 [2] = test: as above
Summary of the method: as §1

S. aureus DSM 20231 [3] = test: as above
Summary of the method: as §1

S. pneumoniae D39V [4] = test: fitness (endpoint OD595 vs no drug) (fraction); higher = more growth
Summary of the method: (§2)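 Plates with 384 wells were inoculated at OD595 0.01 using 30 µl of TSB, LB Lennox or CY, or 55 µl for S. pneumoniae. Incubation was at 37 °C, with OD595 measured every 30 min for 14 h. Fitness is the stationary-phase transition optical density over the robust mean of no-drug control wells, after first-reading background subtraction; it is capped at 1.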

B. subtilis 168 [5] = test: as above
Summary of the method: as §2

S. aureus DSM 20231 [6] = test: as above
Summary of the method: as §2
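For Bliss interaction score (quartile over a dose matrix) in this document: first quartile when negative (synergy) and third quartile when positive (antagonism).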

CCC[C@@H]1C[C@@H](C(=O)N[C@@H]([C@H]2O[C@H](SC)[C@H](O)[C@@H](O)[C@H]2O)[C@@H](C)O)N(C)C1 [Lincomycin] + CN[C@@H]1[C@H](O)[C@H](NC)[C@H]2O[C@@]3(O)C(=O)C[C@@H](C)O[C@H]3O[C@@H]2[C@H]1O [Spectinomycin]
Conditions	Bliss interaction score
B. subtilis 168 [2]	-0.0786
S. aureus DSM 20231 [3]	-0.175
S. aureus Newman	-0.195
S. pneumoniae D39V [1]	-0.0914

fitness, one replicate
Conditions	first compound 0.1 µg/mL	first compound 0.2 µg/mL	first compound 0.4 µg/mL	first compound 0.8 µg/mL
S. aureus DSM 20231 [6], partner 32 µg/mL	0.377	0.176	0.0758	–
S. aureus DSM 20231 [6], partner 64 µg/mL	0.0561	0.042	0.0347	–
S. pneumoniae D39V [4], partner 4 µg/mL	–	0.777	0.659	0.412
S. pneumoniae D39V [4], partner 8 µg/mL	–	0.752	0.63	0.35

fitness
Conditions	partner 2 µg/mL	partner 4 µg/mL	partner 8 µg/mL	partner 16 µg/mL
B. subtilis 168 [5], first compound 0.1 µg/mL	0.923	0.923	0.849	–
B. subtilis 168 [5], first compound 0.2 µg/mL	0.937	0.929	0.847	–
B. subtilis 168 [5], first compound 0.4 µg/mL	0.907	0.859	0.861	–
S. aureus DSM 20231 [6], first compound 0.1 µg/mL	–	0.819	0.732	0.566
S. aureus DSM 20231 [6], first compound 0.2 µg/mL	–	0.581	0.54	0.351
S. aureus DSM 20231 [6], first compound 0.4 µg/mL	–	–	–	0.122
S. pneumoniae D39V [4], first compound 0.215 µg/mL	–	0.777	0.787	0.721
S. pneumoniae D39V [4], first compound 0.43 µg/mL	–	0.688	0.713	0.616
S. pneumoniae D39V [4], first compound 0.86 µg/mL	–	0.268	0.286	0.158

CCC[C@@H]1C[C@@H](C(=O)N[C@@H]([C@H]2O[C@H](SC)[C@H](O)[C@@H](O)[C@H]2O)[C@@H](C)O)N(C)C1 [Lincomycin] + COc1c(N2C[C@@H]3CCCN[C@@H]3C2)c(F)cc2c(=O)c(C(=O)O)cn(C3CC3)c12 [Moxifloxacin]
Conditions	Bliss interaction score
B. subtilis 168 [2]	-0.0143
S. aureus DSM 20231 [3]	0.124
S. aureus Newman	0.0565
S. pneumoniae D39V [1]	0.0862

Conditions	fitness
B. subtilis 168 [5], first compound 0.1 µg/mL, partner 2 µg/mL	0.0333
B. subtilis 168 [5], first compound 0.1 µg/mL, partner 4 µg/mL	0.0228
B. subtilis 168 [5], first compound 0.1 µg/mL, partner 8 µg/mL	0.0229
B. subtilis 168 [5], first compound 0.2 µg/mL, partner 2 µg/mL	0.0297
B. subtilis 168 [5], first compound 0.2 µg/mL, partner 4 µg/mL	0.0322
B. subtilis 168 [5], first compound 0.2 µg/mL, partner 8 µg/mL	0.0239
B. subtilis 168 [5], first compound 0.4 µg/mL, partner 0.0312 µg/mL	0.0344
B. subtilis 168 [5], first compound 0.4 µg/mL, partner 0.0625 µg/mL	0.036
B. subtilis 168 [5], first compound 0.4 µg/mL, partner 0.125 µg/mL	0.0478
B. subtilis 168 [5], first compound 0.4 µg/mL, partner 2 µg/mL	0.0261
B. subtilis 168 [5], first compound 0.4 µg/mL, partner 4 µg/mL	0.0257
B. subtilis 168 [5], first compound 0.4 µg/mL, partner 8 µg/mL	0.0306
B. subtilis 168 [5], first compound 0.8 µg/mL, partner 0.0312 µg/mL	0.0429
B. subtilis 168 [5], first compound 0.8 µg/mL, partner 0.0625 µg/mL	0.049
B. subtilis 168 [5], first compound 0.8 µg/mL, partner 0.125 µg/mL	0.0451
B. subtilis 168 [5], first compound 1.6 µg/mL, partner 0.0312 µg/mL	0.0535
B. subtilis 168 [5], first compound 1.6 µg/mL, partner 0.0625 µg/mL	0.0507
B. subtilis 168 [5], first compound 1.6 µg/mL, partner 0.125 µg/mL	0.0559
S. aureus DSM 20231 [6], first compound 0.1 µg/mL, partner 0.0075 µg/mL	0.823
S. aureus DSM 20231 [6], first compound 0.1 µg/mL, partner 0.015 µg/mL	0.765
S. aureus DSM 20231 [6], first compound 0.1 µg/mL, partner 0.03 µg/mL	0.671
S. aureus DSM 20231 [6], first compound 0.2 µg/mL, partner 0.0075 µg/mL	0.737
S. aureus DSM 20231 [6], first compound 0.2 µg/mL, partner 0.015 µg/mL	0.715
S. aureus DSM 20231 [6], first compound 0.2 µg/mL, partner 0.03 µg/mL	0.689
S. aureus DSM 20231 [6], first compound 0.4 µg/mL, partner 0.0075 µg/mL	0.301
S. aureus DSM 20231 [6], first compound 0.4 µg/mL, partner 0.015 µg/mL	0.278
S. aureus DSM 20231 [6], first compound 0.4 µg/mL, partner 0.03 µg/mL	0.359
S. pneumoniae D39V [4], first compound 0.2 µg/mL, partner 0.005 µg/mL	0.749
S. pneumoniae D39V [4], first compound 0.2 µg/mL, partner 0.01 µg/mL	0.829
S. pneumoniae D39V [4], first compound 0.2 µg/mL, partner 0.02 µg/mL	0.757
S. pneumoniae D39V [4], first compound 0.215 µg/mL, partner 0.0037 µg/mL	0.742
S. pneumoniae D39V [4], first compound 0.215 µg/mL, partner 0.0075 µg/mL	0.769
S. pneumoniae D39V [4], first compound 0.215 µg/mL, partner 0.015 µg/mL	0.751
S. pneumoniae D39V [4], first compound 0.4 µg/mL, partner 0.005 µg/mL	0.675
S. pneumoniae D39V [4], first compound 0.4 µg/mL, partner 0.01 µg/mL	0.704
S. pneumoniae D39V [4], first compound 0.4 µg/mL, partner 0.02 µg/mL	0.653
S. pneumoniae D39V [4], first compound 0.43 µg/mL, partner 0.0037 µg/mL	0.629
S. pneumoniae D39V [4], first compound 0.43 µg/mL, partner 0.0075 µg/mL	0.651
S. pneumoniae D39V [4], first compound 0.43 µg/mL, partner 0.015 µg/mL	0.677
S. pneumoniae D39V [4], first compound 0.86 µg/mL, partner 0.0037 µg/mL	0.34
S. pneumoniae D39V [4], first compound 0.86 µg/mL, partner 0.0075 µg/mL	0.339
S. pneumoniae D39V [4], first compound 0.86 µg/mL, partner 0.015 µg/mL	0.297

fitness, one replicate
Conditions	first compound 0.1 µg/mL	first compound 0.2 µg/mL	first compound 0.4 µg/mL
B. subtilis 168 [5], partner 0.0312 µg/mL	0.0564	0.039	–
B. subtilis 168 [5], partner 0.0625 µg/mL	0.0916	0.06	–
B. subtilis 168 [5], partner 0.125 µg/mL	0.0846	0.0751	–
S. aureus DSM 20231 [6], partner 0.06 µg/mL	0.661	0.677	0.562
S. aureus DSM 20231 [6], partner 0.12 µg/mL	0.498	0.527	0.448

CCC[C@@H]1C[C@@H](C(=O)N[C@@H]([C@H]2O[C@H](SC)[C@H](O)[C@@H](O)[C@H]2O)[C@@H](C)O)N(C)C1 [Lincomycin] + COc1ccc(C[C@H](N)C(=O)N[C@H]2[C@@H](O)[C@H](n3cnc4c(N(C)C)ncnc43)O[C@@H]2CO)cc1 [Puromycin]
Conditions	Bliss interaction score
B. subtilis 168 [2]	-0.0436
S. aureus DSM 20231 [3]	-0.0648
S. aureus Newman	0.0533
S. pneumoniae D39V [1]	-0.157

fitness, one replicate
Conditions	first compound 0.1 µg/mL	first compound 0.2 µg/mL	first compound 0.4 µg/mL	first compound 0.8 µg/mL
S. aureus DSM 20231 [6], partner 3.12 µg/mL	0.822	0.489	0.207	–
S. aureus DSM 20231 [6], partner 6.24 µg/mL	0.282	0.217	0.093	–
S. pneumoniae D39V [4], partner 1 µg/mL	–	0.64	0.382	0.0776
S. pneumoniae D39V [4], partner 2 µg/mL	–	0.621	0.325	0.127
S. pneumoniae D39V [4], partner 4 µg/mL	–	0.275	0.083	0.0925

fitness
Conditions	first compound 0.1 µg/mL	first compound 0.2 µg/mL	first compound 0.215 µg/mL	first compound 0.4 µg/mL	first compound 0.43 µg/mL	first compound 0.86 µg/mL
B. subtilis 168 [5], partner 0.39 µg/mL	0.867	0.869	–	0.854	–	–
B. subtilis 168 [5], partner 0.78 µg/mL	0.889	0.883	–	0.91	–	–
B. subtilis 168 [5], partner 1.56 µg/mL	0.873	0.866	–	0.843	–	–
S. aureus DSM 20231 [6], partner 0.39 µg/mL	0.877	0.806	–	0.304	–	–
S. aureus DSM 20231 [6], partner 0.78 µg/mL	0.935	0.776	–	0.303	–	–
S. aureus DSM 20231 [6], partner 1.56 µg/mL	0.906	0.759	–	0.253	–	–
S. pneumoniae D39V [4], partner 1 µg/mL	–	–	0.838	–	0.756	0.436
S. pneumoniae D39V [4], partner 2 µg/mL	–	–	0.792	–	0.709	0.3
S. pneumoniae D39V [4], partner 4 µg/mL	–	–	0.743	–	0.536	0.251
